In ChEMBL document CHEMBL6092137, “Synergistic immune augmentation enabled by covalently conjugating TLR4 and NOD2 agonists” (Eur J Med Chem, 2024):
The source made the active and inactive calls. No cut-off for these calls is given here.

Experiments:
[1] = Immunostimulatory activity in mouse spleen T-lymphocytes assessed as fold increase in proportion of TNF-alpha positive secreting CD4+ cells and measured on day 42 by staining based flow cytometric analysis relative to RC529 and muramyl dipeptide combination; type: functional, T-cell
[2] = Toxicity in immunized BALB/c mouse assessed as vascular congestion in kidneys measured on day 42 by H and E staining based analysis; conditions: in vivo, 1008 h, time 42 day
[3] = Induction of mouse RAW264.7 cell maturation assessed as change in CD86 positive cells incubated for 18 hrs by staining based flow cytometric analysis relative to control; type: functional
[4] = Toxicity in immunized BALB/c mouse assessed as vascular congestion in brain measured on day 42 by H and E staining based analysis; type: tissue-based; conditions: in vivo, 1008 h, time 42 day
Mus musculus [5] = species: Mus musculus; test: Activation of adaptive immune response in ovalbumin immunized mouse model assessed as fold increase in IgG titers incubated for 1 hrs and measured on day 42 relative to combination of RC529 and Muramyl dipeptide; type: functional
[6] = Induction of mouse RAW264.7 cell maturation assessed as fold increase in CD80 and CD86 positive cells incubated for 18 hrs by staining based flow cytometric analysis relative to combination of RC529 and Muramyl dipeptide; type: functional
[7] = Immunostimulatory activity in C57BL/6 mouse BMDC cells assessed as TLR4 inhibitor mediated reduction in IL-6 level at 9.3 uM incubated for 20 hrs in presence of TAK242 by ELISA; type: functional; parameters: scale not given: the % may be the effect or the level left
T-cell [8] = test: Immunostimulatory activity in mouse spleen T-lymphocytes assessed as fold increase in proportion of TNF-alpha and IFN-gamma double-positive secreting CD8+ cells and measured on day 42 by staining based flow cytometric analysis relative to combination of RC529 and muramyl dipeptide; type: functional; conditions: time 42 day
[9] = Toxicity in immunized BALB/c mouse assessed as inflammatory cell infiltration in lungs measured on day 42 by H and E staining based analysis; conditions: 1008 h, time 42 day
Mus musculus [10] = species: Mus musculus; test: Activation of adaptive immune response in ovalbumin immunized mouse model assessed as increase in IgG titers incubated for 1 hrs and measured on 28 to 42 days; type: functional, organism-based
T-cell [11] = test: Immunostimulatory activity in mouse spleen T-lymphocytes assessed as fold increase in proportion of IFN-gamma positive secreting CD4+ cells and measured on day 42 by staining based flow cytometric analysis relative to RC529 and muramyl dipeptide combination; type: functional; conditions: time 42 day
[12] = Toxicity in immunized BALB/c mouse assessed as inflammatory cell infiltration in kidneys measured on day 42 by H and E staining based analysis; conditions: 1008 h, time 42 day
[13] = Induction of mouse BMDC cell maturation assessed as change in CD80 positive cells incubated for 18 hrs by staining based flow cytometric analysis relative to control; type: functional
[14] = Toxicity in immunized BALB/c mouse assessed as inflammatory cell infiltration in spleen measured on day 42 by H and E staining based analysis; conditions: 1008 h, time 42 day
Mus musculus [15] = species: Mus musculus; test: Activation of adaptive immune response in ovalbumin immunized mouse model assessed as increase in IgG2a titers incubated for 1 hrs and measured on day 42; type: functional, organism-based
[16] = Toxicity in immunized BALB/c mouse assessed as change in AST level measured on day 42 […]; conditions: in vivo, 1008 h, time 42 day
Mus musculus [17] = species: Mus musculus; test: Activation of adaptive immune response in ovalbumin immunized mouse model assessed as increase in IgG1 titers incubated for 1 hrs and measured on day 42; type: functional, organism-based
Mus musculus [18] = test: Induction of innate immunity in BALB/c mouse assessed as fold increase in IL-6 level in serum at 22.53 ug, ip measured after 2 hrs by ELISA; type: functional; conditions: dose 22.53 µg
[19] = Toxicity in immunized BALB/c mouse assessed as change in ALT level measured on day 42 […]; conditions: in vivo, 1008 h, time 42 day
[20] = Toxicity in immunized BALB/c mouse assessed as inflammatory cell infiltration in brain measured on day 42 by H and E staining based analysis; type: tissue-based; conditions: 1008 h, time 42 day
[21] = Immunostimulatory activity in C57BL/6 mouse BMDC cells assessed as TLR4 inhibitor mediated reduction in IL-6 level at 9.3 uM incubated for 20 hrs in presence of GSK717 by ELISA; type: functional; parameters: scale not given: the % may be the effect or the level left
[22] = Toxicity in immunized BALB/c mouse assessed as vascular congestion in spleen measured on day 42 by H and E staining based analysis; conditions: in vivo, 1008 h, time 42 day
[23] = Induction of mouse RAW264.7 cell maturation assessed as fold increase in CD80 positive cells incubated for 18 hrs by staining based flow cytometric analysis relative to combination of RC529 and Muramyl dipeptide; type: functional
[24] = Toxicity in immunized BALB/c mouse assessed as inflammatory cell infiltration in heart measured on day 42 by H and E staining based analysis; type: tissue-based; conditions: 1008 h, time 42 day
[25] = Immunostimulatory activity in C57BL/6 mouse BMDC cells assessed as TLR4/NOD2 inhibitor mediated reduction in IL-6 level at 9.3 uM incubated for 20 hrs in presence of TAK242/ GSK717 by ELISA; type: functional; parameters: scale not given: the % may be the effect or the level left
Mus musculus [26] = species: Mus musculus; test: Activation of adaptive immune response in ovalbumin immunized mouse model assessed as increase in IgG2b titers incubated for 1 hrs and measured on day 42; type: functional, organism-based
THP-1 = test: Cytotoxicity against human THP-1 cells assessed as reduction in cell viability by MTT assay; type: toxicity, cell-based
[27] = Induction of mouse BMDC cell maturation assessed as fold increase in CD86 positive cells incubated for 18 hrs by staining based flow cytometric analysis relative to combination of RC529 and Muramyl dipeptide; type: functional
[28] = Immunostimulatory activity in female BALB/c mouse spleen T-lymphocytes assessed as fold increase in proportion of Tcm in CD8+ cells and measured on day 42 by staining based flow cytometric analysis relative to combination of RC529 and Muramyl dipeptide; type: functional, T-cell; conditions: time 42 day
[29] = Toxicity in immunized BALB/c mouse assessed as vascular congestion in heart measured on day 42 by H and E staining based analysis; type: tissue-based; conditions: in vivo, 1008 h, time 42 day
T-cell [30] = test: Immunostimulatory activity in mouse spleen T-lymphocytes assessed as fold increase in proportion of TNF-alpha and IFN-gamma double-positive secreting CD4+ cells and measured on day 42 by staining based flow cytometric analysis relative to muramyl dipeptide; type: functional; conditions: time 42 day
[31] = Toxicity in immunized BALB/c mouse assessed as inflammatory cell infiltration in liver measured on day 42 by H and E staining based analysis; conditions: 1008 h, time 42 day
[32] = Induction of mouse BMDC cell maturation assessed as change in CD86 positive cells incubated for 18 hrs by staining based flow cytometric analysis relative to control; type: functional
T-cell [33] = test: Immunostimulatory activity in mouse spleen T-lymphocytes assessed as fold increase in proportion of TNF-alpha and IFN-gamma double-positive secreting CD4+ cells and measured on day 42 by staining based flow cytometric analysis RC529; type: functional; conditions: time 42 day
[34] = Induction of mouse BMDC cell maturation assessed as fold increase in CD80 positive cells incubated for 18 hrs by staining based flow cytometric analysis relative to combination of RC529 and Muramyl dipeptide; type: functional
[35] = Toxicity in immunized BALB/c mouse assessed as vascular congestion in liver measured on day 42 by H and E staining based analysis; conditions: in vivo, 1008 h, time 42 day
[36] = Toxicity in immunized BALB/c mouse assessed as vascular congestion in lungs measured on day 42 by H and E staining based analysis; conditions: in vivo, 1008 h, time 42 day
[37] = Induction of mouse RAW264.7 cell maturation assessed as change in CD80 positive cells incubated for 18 hrs by staining based flow cytometric analysis relative to control; type: functional
[38] = Induction of mouse RAW264.7 cell maturation assessed as fold increase in CD86 positive cells incubated for 18 hrs by staining based flow cytometric analysis relative to combination of RC529 and Muramyl dipeptide; type: functional
[39] = Induction of mouse BMDC cell maturation assessed as fold increase in CD80 and CD86 positive cells incubated for 18 hrs by staining based flow cytometric analysis relative to combination of RC529 and Muramyl dipeptide; type: functional
[40] = Immunostimulatory activity in female BALB/c mouse spleen T-lymphocytes assessed as fold increase in proportion of Tcm in CD4+ cells and measured on day 42 by staining based flow cytometric analysis relative to combination of RC529 and Muramyl dipeptide; type: functional, T-cell; conditions: time 42 day

CCCCCCCCCCCCCC(=O)O[C@H](CCCCCCCCCCC)CC(=O)NCCO[C@@H]1O[C@H](CNC(=O)CCc2cn(CCO[C@@H]3O[C@H](CO)[C@@H](O)[C@H](O[C@H](C)C(=O)N[C@H](C)C(=O)N[C@H](CCC(=O)O)C(N)=O)[C@H]3NC(C)=O)nn2)[C@@H](OP(=O)(O)O)[C@H](OC(=O)C[C@@H](CCCCCCCCCCC)OC(=O)CCCCCCCCCCCCC)[C@H]1NC(=O)C[C@@H](CCCCCCCCCCC)OC(=O)CCCCCCCCCCCCC
fold change (FC) [1]: 1.3 | Activity [2]: Non-toxic | Activity [3]: 29.9% | Activity [4]: Non-toxic | fold change (FC) (Mus musculus [5]): 2 | fold change (FC) [6]: 2.1 | Activity [7]: 98% | fold change (FC) (T-cell [8]): 3.3 | Activity [9]: Non-toxic | Activity (Mus musculus [10]): Active | fold change (FC) (T-cell [11]): 1.3 | Activity [12]: Non-toxic | Activity [13]: 31.5% | Activity [14]: Non-toxic | Activity (Mus musculus [15]): Active | Activity [16]: Non-toxic | Activity (Mus musculus [17]): Active | fold change (FC) (Mus musculus [18]): 6.8 | Activity [19]: Non-toxic | Activity [20]: Non-toxic | Activity [21]: 58% | Activity [22]: Non-toxic | fold change (FC) [23]: 1.4 | Activity [24]: Non-toxic | Activity [25]: 99% | Activity (Mus musculus [26]): Active | Activity (THP-1): Non-toxic | fold change (FC) [27]: 1.5 | fold change (FC) [28]: 2.7 | Activity [29]: Non-toxic | fold change (FC) (T-cell [30]): 1.5 | Activity [31]: Non-toxic | Activity [32]: 22.4% | fold change (FC) (T-cell [33]): 1.6 | fold change (FC) [34]: 1.3 | Activity [35]: Non-toxic | Activity [36]: Non-toxic | Activity [37]: 40.4% | fold change (FC) [38]: 2.2 | fold change (FC) [39]: 1.7 | fold change (FC) [40]: 1.2
